Assay results taken from ChEMBL document CHEMBL1201862, “PubChem BioAssay data set” (2004).
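In this assay, cells in 96-well plates receive the compound at five concentrations for 48 hours. Endpoints are linearly interpolated between the surrounding concentrations. GI50 marks 50% less growth.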 Calls of active or inactive are those of the source. Cut-off read from the data, not from the text of the source: active = GI50 up to about 1.1 µM and inactive = higher.

Columns and labels:
Experiment in all cases: inhibition of tumour cell growth, NCI panel, 48 h
HCC 2998 = tested on: HCC 2998
SF-539 = tested on: SF-539
SW-620 = tested on: SW-620
SK-MEL-28 = tested on: SK-MEL-28
M14 = tested on: M14
UO-31 = tested on: UO-31
NCI-H226 = tested on: NCI-H226
A498 = tested on: A498
IGROV-1 = tested on: IGROV-1
U-251 = tested on: U-251
EKVX = tested on: EKVX
SN12C = tested on: SN12C
SR = tested on: SR
TK-10 = tested on: TK-10
KM12 = tested on: KM12

Measured: GI50

N=C(N)NS(=O)(=O)c1ccc(Nc2c3ccccc3nc3c(C(=O)N4CCN(CCO)CC4)cccc23)cc1
inactive: HCC 2998 > 100 µM | SF-539 > 100 µM | SW-620 > 100 µM | SK-MEL-28 > 100 µM | M14 > 100 µM | UO-31 > 100 µM | NCI-H226 > 100 µM | A498 > 100 µM | IGROV-1 > 100 µM | U-251 > 100 µM | EKVX > 100 µM | SN12C > 100 µM | SR > 100 µM | TK-10 > 100 µM | KM12 > 100 µM

COC(=O)CC(C(C(=O)OCc1ccccc1)C(C)O)N1C(=O)OC(c2ccccc2)C1c1ccccc1 (stereo not given)
inactive: HCC 2998 > 100 µM | SF-539 > 100 µM | SW-620 > 100 µM | SK-MEL-28 > 100 µM | M14 > 100 µM | UO-31 48.9 µM | NCI-H226 > 100 µM | A498 > 100 µM | IGROV-1 > 100 µM | U-251 > 100 µM | EKVX > 100 µM | SN12C > 100 µM | SR 81.5 µM | TK-10 > 100 µM

COc1ccc(NC(=O)CC(=O)N/N=C/c2ccc(N(CCC#N)S(=O)(=O)c3ccccc3)cc2)cc1
inactive: HCC 2998 > 100 µM | SW-620 > 100 µM | SK-MEL-28 > 100 µM | M14 > 100 µM | UO-31 > 100 µM | NCI-H226 > 100 µM | IGROV-1 > 100 µM | U-251 > 100 µM | EKVX > 100 µM | SR > 100 µM | TK-10 > 100 µM | KM12 > 100 µM

O=C(Nc1cc(Cl)c(Cl)cc1Cl)C(=O)C(C(=O)c1ccc2ccccc2c1)C1OC(=O)c2ccccc21 (stereo not given)
inactive: SF-539 3.39 µM | SW-620 10.8 µM | SK-MEL-28 10.3 µM | M14 21.8 µM | UO-31 18 µM | NCI-H226 2.65 µM | A498 12 µM | IGROV-1 16.3 µM | U-251 4.47 µM | EKVX 15.4 µM | SN12C 18.2 µM | SR 4.66 µM | KM12 14.6 µM

COc1ccccc1NC(=O)c1nc2ccc([N+](=O)[O-])cc2nc1C
inactive: HCC 2998 > 100 µM | SF-539 > 100 µM | SW-620 > 100 µM | SK-MEL-28 > 100 µM | M14 > 100 µM | UO-31 > 100 µM | NCI-H226 99.3 µM | A498 > 100 µM | IGROV-1 > 100 µM | U-251 > 100 µM | EKVX > 100 µM | SN12C > 100 µM | TK-10 > 100 µM | KM12 > 100 µM

COc1ccc2oc(C(=O)O)c3c2c1CCC3CCC(=O)O (stereo not given)
inactive: HCC 2998 > 100 µM | SF-539 > 100 µM | SW-620 > 100 µM | SK-MEL-28 > 100 µM | UO-31 > 100 µM | A498 > 100 µM | IGROV-1 > 100 µM | U-251 > 100 µM | EKVX > 100 µM | SN12C > 100 µM | SR > 100 µM | TK-10 > 100 µM | KM12 > 100 µM

COc1ccc(C(=O)C(c2ccc(OC)cc2)C2C(=O)Oc3ccccc32)cc1 (stereo not given)
inactive: HCC 2998 > 10 µM | SF-539 > 10 µM | SW-620 > 10 µM | SK-MEL-28 > 10 µM | M14 > 10 µM | UO-31 22.5 µM | NCI-H226 > 10 µM | A498 > 10 µM | IGROV-1 > 10 µM | U-251 > 10 µM | EKVX > 10 µM | SN12C > 10 µM | SR > 10 µM | TK-10 > 10 µM | KM12 > 10 µM

O=C1CNNC(Cn2nc(-c3ccccc3)c3ccccc3c2=O)=N1
inactive: HCC 2998 > 100 µM | SF-539 > 100 µM | SW-620 > 100 µM | SK-MEL-28 > 100 µM | M14 > 100 µM | UO-31 > 100 µM | NCI-H226 > 100 µM | A498 > 100 µM | IGROV-1 > 100 µM | U-251 > 100 µM | SN12C > 100 µM | SR > 100 µM | TK-10 > 100 µM | KM12 > 100 µM

CCCCNC(=O)C1C2CCC(O2)C1C(=O)O (stereo not given)
inactive: HCC 2998 26.2 µM | SF-539 21 µM | SW-620 1.71 µM | SK-MEL-28 28 µM | M14 14.2 µM | UO-31 64.6 µM | NCI-H226 19 µM | A498 12.7 µM | IGROV-1 > 100 µM | U-251 13.6 µM | EKVX 13.7 µM | SN12C 14 µM | SR 18.8 µM | TK-10 18.1 µM | KM12 56.2 µM

OC1C2C=CCC1CCC2 (stereo not given)
inactive: SF-539 > 100 µM | SW-620 > 100 µM | SK-MEL-28 > 100 µM | M14 > 100 µM | UO-31 > 100 µM | NCI-H226 > 100 µM | A498 > 100 µM | IGROV-1 > 100 µM | U-251 > 100 µM | EKVX > 100 µM | SN12C > 100 µM | SR > 100 µM | TK-10 > 100 µM | KM12 > 100 µM

COC(=O)CC(=O)C[P+](c1ccccc1)(c1ccccc1)c1ccccc1
inactive: HCC 2998 > 218 µM | SF-539 197 µM | SW-620 121 µM | SK-MEL-28 196 µM | NCI-H226 180 µM | IGROV-1 > 218 µM | U-251 > 218 µM | EKVX > 218 µM | SN12C 95.3 µM | SR 58.1 µM | TK-10 > 218 µM | KM12 > 218 µM

CCOC(=O)NN1C(=O)C(=P(c2ccccc2)(c2ccccc2)c2ccccc2)C(C(=O)OCC)=C1C
inactive: HCC 2998 > 100 µM | SF-539 > 100 µM | SW-620 > 100 µM | M14 > 100 µM | UO-31 > 100 µM | NCI-H226 > 100 µM | A498 > 100 µM | IGROV-1 > 100 µM | U-251 > 100 µM | EKVX > 100 µM | SN12C > 100 µM | SR > 100 µM | TK-10 > 100 µM | KM12 > 100 µM

CCCCCCCCCCC/C(=N/O)c1ccc(O)c2ncccc12
inactive: HCC 2998 5.28 µM | SF-539 2.02 µM | SW-620 3.86 µM | SK-MEL-28 9.25 µM | M14 1.76 µM | UO-31 2.8 µM | NCI-H226 3.22 µM | U-251 4.48 µM | EKVX 3.52 µM | TK-10 7.35 µM | KM12 6.41 µM

COC(=O)C1=C(O)C(O)=C(C(=O)OC)C1
inactive: HCC 2998 > 100 µM | SF-539 > 100 µM | SW-620 > 100 µM | SK-MEL-28 > 100 µM | M14 > 100 µM | UO-31 > 100 µM | NCI-H226 > 100 µM | A498 > 100 µM | IGROV-1 > 100 µM | U-251 > 100 µM | EKVX > 100 µM | SN12C > 100 µM | TK-10 > 100 µM | KM12 > 100 µM
